Where two headings read alike, the source gives them in different places.
Key:
blood pressure in NR [1] = assay: Test 3: effect on the blood pressure in NR, intravenous; format: in vivo, male Wistar rats (normotensive rats; conditions: 100 μg/kg, procedure of Test 2 (femoral vein), 10- to 12-week-old male Wistar rats
Experimental: (§1) Thirty-two-week-old male SHRs (divided into groups of three rats each) were anesthetized with urethane (1.1 g/kg, i.p.), and the blood pressure of each of the rats delivered from the common carotid artery was recorded on a polygraph through a pressure transducer (Model MPU-0.5).
(§2) The pharmaceutical preparation was administered through a cannula inserted into the femoral vein of the rat at a rate of 0.5 ml/kg, and the blood pressure was measured continuously from before administration to 30 minutes after administration.
(§3) The procedure of Test 2 was followed with 10- to 12-week-old male Wistar rats (divided into groups of three rats each) to measure the hypotensive effects of the respective pharmaceutical preparations (100 μg/kg). Simultaneously, the change in heart rate was measured. The heart rate was measured by an ictometer based on the systolic blood pressure as a trigger.

heart rate = assay: Test 3: change in heart rate in NR; format: in vivo, male Wistar rats (normotensive rats; conditions: 100 μg/kg, procedure of Test 2, 10- to 12-week-old male Wistar rats
Experimental: as §3

blood pressure in SHR [2] = assay: Test 1: effect on the blood pressure in SHR, oral, tail artery sphygmomanometer; format: in vivo, spontaneously hypertensive rats (SHR); conditions: 12- to 15-week-old male SHR, maximum within 2, 4, 6 and 8 hours
Experimental: To twelve- to fifteen-week-old male SHRs were orally administered test compounds each suspended in 0.5% CMC/physiological saline at a rate of 2 ml/kg. The blood pressure of the thus treated SHRs was measured by means of a tail artery sphygmomanometer (supplied by Nalco Co., Model PE-300) prior to the oral administration and at 2, 4, 6 and 8 hours thereafter. Reduction in blood pressure was calculated on the basis of the values thus obtained, and the maximum reduction levels attained by the respective compounds are summarized in TABLE 2. Each test compound was evaluated with a group of 4 rats.

blood pressure in SHR [3] = assay: Test 2: effect on the blood pressure in SHR, intravenous, anesthetized; format: in vivo, spontaneously hypertensive rats (SHR), male; conditions: for Reduction in blood pressure (-Δmax, mmHg): 100 μg/kg, femoral vein, 32-week-old male SHR, urethane anesthesia, 30 minutes; for selectivity of hypotensive effect, SHR versus NR (in words): TABLES 3 and 4, 100 μg/kg
Experimental: as §1, §2

male Jcl:ICR mice = assay: Test 5: Acute toxicity; format: in vivo
Experimental: (§4) The acute toxicity of Compound 8(n=13) was tested with seven-week-old male Jcl:ICR mice.
(§5) The physically allowable doses of Compound 8 for intraperitoneal administration and oral administration were 800 mg/kg and 1,300 mg/kg, respectively.

blood pressure in SHR [4] = assay: Test 4: effect on the blood pressure in SHR, oral; format: in vivo, spontaneously hypertensive rats (SHR), male; conditions: 10 mg/kg
blood pressure in NR [5] = assay: Test 4: effect on the blood pressure in NR, oral; format: in vivo, male Wistar rats (normotensive rats; conditions: Wistar rat, 18- to 20-week-old male, 10 mg/kg
Experimental: Eighteen- to twenty-week-old male SHR (divided into groups of four rats each) and eighteen- to twenty-week-old male Wistar rats (divided into groups of four rats each) were orally administered with Compound 8(n=13) in the same manner as in Test 2 at a dose of 10 mg/kg, and the blood pressure of each of the rats was measured.

Test 5: Acute toxicity = format: in vivo; conditions: mouse, in vivo
Experimental: as §4, §5

heart = conditions: side effect, background statement; cited from earlier work
adenosine deaminase = conditions: background statement; cited from earlier work

Structure (SMILES): CCCC#Cc1nc(N)c2ncn([C@@H]3O[C@H](CO)[C@@H](O)[C@H]3O)c2n1 [Compound 1]
- Reduction in blood pressure (-Δmax, mmHg) (blood pressure in NR [1]): 21 mmHg
- Change in heart rate (ΔHR) (heart rate): -48

Structure (SMILES): CCCCC#Cc1nc(N)c2ncn([C@@H]3O[C@H](CO)[C@@H](O)[C@H]3O)c2n1 [Compound 2]
- Reduction in blood pressure (-Δmax, mmHg) (blood pressure in SHR [2]; 1 mg/kg): > 136 mmHg
- Reduction in blood pressure (-Δmax, mmHg) (blood pressure in NR [1]): 42 mmHg
- Change in heart rate (ΔHR) (heart rate): -36

Structure (SMILES): CCCCCC#Cc1nc(N)c2ncn([C@@H]3O[C@H](CO)[C@@H](O)[C@H]3O)c2n1 [Compound 3]
- Reduction in blood pressure (-Δmax, mmHg) (blood pressure in NR [1]): 48 mmHg
- Change in heart rate (ΔHR) (heart rate): -180

Structure (SMILES): CCCCCCC#Cc1nc(N)c2ncn([C@@H]3O[C@H](CO)[C@@H](O)[C@H]3O)c2n1 [Compound 4]
- Reduction in blood pressure (-Δmax, mmHg) (blood pressure in SHR [2]; 1 mg/kg): 69 mmHg
- Reduction in blood pressure (-Δmax, mmHg) (blood pressure in NR [1]): 55 mmHg
- Change in heart rate (ΔHR) (heart rate): -288

Structure (SMILES): CCCCCCCCC#Cc1nc(N)c2ncn([C@@H]3O[C@H](CO)[C@@H](O)[C@H]3O)c2n1 [Compound 5]
- Reduction in blood pressure (-Δmax, mmHg) (blood pressure in SHR [2]; 3 mg/kg): 106 mmHg
- Reduction in blood pressure (-Δmax, mmHg) (blood pressure in NR [1]): 24 mmHg
- Change in heart rate (ΔHR) (heart rate): -18

Structure (SMILES): CCCCCCCCCCC#Cc1nc(N)c2ncn([C@@H]3O[C@H](CO)[C@@H](O)[C@H]3O)c2n1 [Compound 6]
- Reduction in blood pressure (-Δmax, mmHg) (blood pressure in SHR [2]; 3 mg/kg): 65 mmHg
- Reduction in blood pressure (-Δmax, mmHg) (blood pressure in SHR [3]): 20 mmHg
- selectivity of hypotensive effect, SHR versus NR (in words) (blood pressure in SHR [3]): substantially equal hypotensive effect on SHR and NR
- Reduction in blood pressure (-Δmax, mmHg) (blood pressure in NR [1]): 26 mmHg
- Change in heart rate (ΔHR) (heart rate): -12
- mortality, intraperitoneal administration of 500 mg/kg (male Jcl:ICR mice; mouse, in vivo): all the five mice forming one group died

Structure (SMILES): CCCCCCCCCCCCC#Cc1nc(N)c2ncn([C@@H]3O[C@H](CO)[C@@H](O)[C@H]3O)c2n1 [Compound 7]
- Reduction in blood pressure (-Δmax, mmHg) (blood pressure in SHR [2]; 3 mg/kg): 65 mmHg
- Reduction in blood pressure (-Δmax, mmHg) (blood pressure in SHR [3]): 21 mmHg
- selectivity of hypotensive effect, SHR versus NR (in words) (blood pressure in SHR [3]): acted selectively on SHR
- Reduction in blood pressure (-Δmax, mmHg) (blood pressure in NR [1]): 10 mmHg
- Change in heart rate (ΔHR) (heart rate): 0

Structure (SMILES): CCCCCCCCCCCCCCC#Cc1nc(N)c2ncn([C@@H]3O[C@H](CO)[C@@H](O)[C@H]3O)c2n1 [Compound 8]
- Reduction in blood pressure (-Δmax, mmHg) (blood pressure in SHR [2]; 3 mg/kg): 48 mmHg
- Reduction in blood pressure (-Δmax, mmHg) (blood pressure in SHR [3]): 16 mmHg
- selectivity of hypotensive effect, SHR versus NR (in words) (blood pressure in SHR [3]): acted selectively on SHR
- Reduction in blood pressure (-Δmax, mmHg) (blood pressure in NR [1]): 5 mmHg
- Change in heart rate (ΔHR) (heart rate): 0
- selectivity of hypotensive effect on SHR, oral (in words) (blood pressure in SHR [4]; SHR versus Wistar rat, TABLE 5): tendency of Compound 8(n=13) to act selectively on SHR
- Reduction in blood pressure (-Δ, mmHg), 1 hr. after administration (blood pressure in SHR [4]; SHR, 18- to 20-week-old male, 1 hr): 41 mmHg
- Reduction in blood pressure (-Δ, mmHg), 2 hrs. after administration (blood pressure in SHR [4]; SHR, 18- to 20-week-old male, 2 hrs): 42 mmHg
- Reduction in blood pressure (-Δ, mmHg), 1 hr. after administration (blood pressure in NR [5]; 1 hr): 16 mmHg
- Reduction in blood pressure (-Δ, mmHg), 2 hrs. after administration (blood pressure in NR [5]; 2 hrs): 24 mmHg
- LD50 (Test 5: Acute toxicity; ip, read-out: LD50, intraperitoneal administration): > 800 mg/kg
- selectivity ratio (Test 5: Acute toxicity; po): ≥ 400
- LD50 (Test 5: Acute toxicity; po, read-out: LD50, oral administration): > 1300 mg/kg
- toxicity compared with Compound 6 (in words) (male Jcl:ICR mice; compared with long-chain compound such as Compound 6): less toxic
- mortality at maximum doses (male Jcl:ICR mice; mouse, in vivo): None of the mice administered with the test compound at these maximum doses, divided into groups of five mice each, died

Structure (SMILES): CCCCCCCCCCCCCCCC#Cc1nc(N)c2ncn([C@@H]3O[C@H](CO)[C@@H](O)[C@H]3O)c2n1 [Compound 9]
- Reduction in blood pressure (-Δmax, mmHg) (blood pressure in SHR [2]; 3 mg/kg): 35 mmHg
- Reduction in blood pressure (-Δmax, mmHg) (blood pressure in NR [1]): 3 mmHg
- Change in heart rate (ΔHR) (heart rate): -6

Structure (SMILES): CCCCCCCCCCCCCCCCC#Cc1nc(N)c2ncn([C@@H]3O[C@H](CO)[C@@H](O)[C@H]3O)c2n1 [Compound 10]
- Reduction in blood pressure (-Δmax, mmHg) (blood pressure in SHR [2]; 3 mg/kg): 46 mmHg
- Reduction in blood pressure (-Δmax, mmHg) (blood pressure in NR [1]): 10 mmHg
- Change in heart rate (ΔHR) (heart rate): -5

Structure (SMILES): Nc1ncnc2c1ncn2[C@@H]1O[C@H](CO)[C@@H](O)[C@H]1O [adenosine]
- suppressive effect on the heart (heart): strong suppressive effect on the heart
- deamination by adenosine deaminase (adenosine deaminase): rapidly deaminated by adenosine deaminase
